# Results taken from PubChem BioAssay AID2060509 (Molecular Pharmacology Branch, DTP, NCI, 2025).
# Tested on: 485176-168-R4-J1-PDC spheroids with HUVEC/MSC, viability
# Experiment: Anticancer human tumor 485176-168-R4-J1-PDC patient-derived pancreatic adenocarcinoma cell line growth inhibition [GQUAD]
# Conditions: for IC50: curve of first compound; for viability, T/C: stronger effect = lower value
# Procedure, shortened: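 Multi-cell-type spheroids of tumor cells with HUVEC and mesenchymal stem cells, treated with drug combinations. Concentrations descend in half-log steps from near clinical Cmax, or from 10 microM where Cmax is unknown; viability read-out.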
# [1] = second compound 0.0316 µM, first compound 0.0316 µM
# [2] = second compound 0.0316 µM, first compound 0.1 µM
# [3] = second compound 0.0316 µM, first compound 0.316 µM
# [4] = second compound 0.0316 µM, first compound 1 µM
# [5] = second compound 0.0316 µM, first compound 3.16 µM
# [6] = second compound 0.0316 µM, first compound 10 µM
# [7] = second compound 0.1 µM, first compound 0.0316 µM
# [8] = second compound 0.1 µM, first compound 0.1 µM
# [9] = second compound 0.1 µM, first compound 0.316 µM
# [10] = second compound 0.1 µM, first compound 1 µM
# [11] = second compound 0.1 µM, first compound 3.16 µM
# [12] = second compound 0.1 µM, first compound 10 µM
# [13] = second compound 0.316 µM, first compound 0.0316 µM
# [14] = second compound 0.316 µM, first compound 0.1 µM
# [15] = second compound 0.316 µM, first compound 0.316 µM
# [16] = second compound 0.316 µM, first compound 1 µM
# [17] = second compound 0.316 µM, first compound 3.16 µM
# [18] = second compound 0.316 µM, first compound 10 µM
# [19] = second compound 1 µM, first compound 0.0316 µM
# [20] = second compound 1 µM, first compound 0.1 µM
# [21] = second compound 1 µM, first compound 0.316 µM
# [22] = second compound 1 µM, first compound 1 µM
# [23] = second compound 1 µM, first compound 3.16 µM
# [24] = second compound 1 µM, first compound 10 µM
# [25] = second compound 3.16 µM, first compound 0.0316 µM
# [26] = second compound 3.16 µM, first compound 0.1 µM
# [27] = second compound 3.16 µM, first compound 0.316 µM
# [28] = second compound 3.16 µM, first compound 1 µM
# [29] = second compound 3.16 µM, first compound 3.16 µM
# [30] = second compound 3.16 µM, first compound 10 µM
# [31] = second compound 10 µM, first compound 0.0316 µM
# [32] = second compound 10 µM, first compound 0.1 µM
# [33] = second compound 10 µM, first compound 0.316 µM
# [34] = second compound 10 µM, first compound 1 µM
# [35] = second compound 10 µM, first compound 3.16 µM
# [36] = second compound 10 µM, first compound 10 µM
# 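Note: spheroids exposed to compounds for seven days before readout.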
# 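Throughout, for viability, T/C: percent viability relative to DMSO vehicle control wells as 100%.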
smiles,measurement,setting,value
CCCS(=O)(=O)Nc1ccc(F)c(C(=O)c2c[nH]c3ncc(-c4ccc(Cl)cc4)cc23)c1F + Cc1[nH]c2ccc(F)cc2c1-c1nc2c3cccnc3c3ncccc3c2[nH]1,IC50,second compound 0.0316 µM,> 10 µM
same,IC50,second compound 0.1 µM,> 10 µM
same,IC50,second compound 0.316 µM,> 10 µM
same,IC50,second compound 1 µM,> 10 µM
same,IC50,second compound 3.16 µM,> 10 µM
same,IC50,second compound 10 µM,> 10 µM
same,"viability, T/C",[1],95%
same,"viability, T/C",[2],93.6%
same,"viability, T/C",[3],96.1%
same,"viability, T/C",[4],94.8%
same,"viability, T/C",[5],116%
same,"viability, T/C",[6],75.5%
same,"viability, T/C",[7],84.8%
same,"viability, T/C",[8],102%
same,"viability, T/C",[9],87.8%
same,"viability, T/C",[10],86.1%
same,"viability, T/C",[11],99.1%
same,"viability, T/C",[12],71.2%
same,"viability, T/C",[13],105%
same,"viability, T/C",[14],86.1%
same,"viability, T/C",[15],90.7%
same,"viability, T/C",[16],82.9%
same,"viability, T/C",[17],80.1%
same,"viability, T/C",[18],67.2%
same,"viability, T/C",[19],87.2%
same,"viability, T/C",[20],85.2%
same,"viability, T/C",[21],76.7%
same,"viability, T/C",[22],84.2%
same,"viability, T/C",[23],77.5%
same,"viability, T/C",[24],69.5%
same,"viability, T/C",[25],104%
same,"viability, T/C",[26],88.6%
same,"viability, T/C",[27],89%
same,"viability, T/C",[28],72.1%
same,"viability, T/C",[29],84%
same,"viability, T/C",[30],63.5%
same,"viability, T/C",[31],84.9%
same,"viability, T/C",[32],91%
same,"viability, T/C",[33],88.4%
same,"viability, T/C",[34],74.9%
same,"viability, T/C",[35],66.6%
same,"viability, T/C",[36],51.7%
CC(C)(O)C1CCC(Nc2ccc3ncc(-c4cccc(C(F)(F)F)c4)n3n2)CC1 (stereo unspecified) + CN(C)c1ccc(Nc2c3ccc(NC(=O)CCN4CCCC4)cc3nc3cc(NC(=O)CCN4CCCC4)ccc23)cc1,IC50,second compound 0.0316 µM,> 10 µM
same,IC50,second compound 0.1 µM,> 10 µM
same,IC50,second compound 0.316 µM,> 10 µM
same,IC50,second compound 1 µM,6.25 µM
same,IC50,second compound 3.16 µM,2.74 µM
same,IC50,second compound 10 µM,1.5 µM
same,"viability, T/C",[1],101%
same,"viability, T/C",[2],104%
same,"viability, T/C",[3],86.1%
same,"viability, T/C",[4],78.8%
same,"viability, T/C",[5],56.7%
same,"viability, T/C",[6],51.1%
same,"viability, T/C",[7],83.8%
same,"viability, T/C",[8],89.5%
same,"viability, T/C",[9],88.7%
same,"viability, T/C",[10],77.7%
same,"viability, T/C",[11],64.5%
same,"viability, T/C",[12],51%
same,"viability, T/C",[13],104%
same,"viability, T/C",[14],84.6%
same,"viability, T/C",[15],100%
same,"viability, T/C",[16],97.9%
same,"viability, T/C",[17],56.2%
same,"viability, T/C",[18],59.1%
same,"viability, T/C",[19],111%
same,"viability, T/C",[20],104%
same,"viability, T/C",[21],82.2%
same,"viability, T/C",[22],91.4%
same,"viability, T/C",[23],56.6%
same,"viability, T/C",[24],42.1%
same,"viability, T/C",[25],88.1%
same,"viability, T/C",[26],81.1%
same,"viability, T/C",[27],92.1%
same,"viability, T/C",[28],97.7%
same,"viability, T/C",[29],44.4%
same,"viability, T/C",[30],37.3%
same,"viability, T/C",[31],89%
same,"viability, T/C",[32],85.7%
same,"viability, T/C",[33],72.6%
same,"viability, T/C",[34],65.9%
same,"viability, T/C",[35],25.4%
same,"viability, T/C",[36],16.4%
COc1ncnc(C2CC2)c1-c1ncc2cnn(Cc3ccc(-c4nc(C(F)(F)F)cn4C(C)C)cc3)c2n1 + Cc1cnc(CNC(=O)c2c(=O)c3ccc(N4CCCN(C)CC4)nc3n3c2sc2ccccc23)cn1,IC50,second compound 0.0316 µM,> 10 µM
same,IC50,second compound 0.1 µM,> 10 µM
same,IC50,second compound 0.316 µM,> 10 µM
same,IC50,second compound 1 µM,< 0.0316 µM
same,IC50,second compound 3.16 µM,< 0.0316 µM
same,IC50,second compound 10 µM,< 0.0316 µM
same,"viability, T/C",[1],102%
same,"viability, T/C",[2],83.6%
same,"viability, T/C",[3],88.9%
same,"viability, T/C",[4],89.7%
same,"viability, T/C",[5],107%
same,"viability, T/C",[6],83.7%
same,"viability, T/C",[7],77.3%
same,"viability, T/C",[8],86.8%
same,"viability, T/C",[9],76.8%
same,"viability, T/C",[10],66.2%
same,"viability, T/C",[11],67%
same,"viability, T/C",[12],81%
same,"viability, T/C",[13],54.6%
same,"viability, T/C",[14],65.4%
same,"viability, T/C",[15],56.4%
same,"viability, T/C",[16],73.7%
same,"viability, T/C",[17],61.6%
same,"viability, T/C",[18],62.9%
same,"viability, T/C",[19],50.4%
same,"viability, T/C",[20],44.1%
same,"viability, T/C",[21],57.7%
same,"viability, T/C",[22],52.5%
same,"viability, T/C",[23],58.3%
same,"viability, T/C",[24],54.9%
same,"viability, T/C",[25],45.1%
same,"viability, T/C",[26],47.6%
same,"viability, T/C",[27],47%
same,"viability, T/C",[28],40.4%
same,"viability, T/C",[29],43.8%
same,"viability, T/C",[30],47%
same,"viability, T/C",[31],36.1%
same,"viability, T/C",[32],47.7%
same,"viability, T/C",[33],40.3%
same,"viability, T/C",[34],34.4%
same,"viability, T/C",[35],40.5%
same,"viability, T/C",[36],39.6%
